Values after ≈ are worked out from the molar mass of the structure shown. Counter-ions that a name gives are not always drawn.
Assays:
[1] = test system: Herpes simplex type 1 and 2; experiment: Herpes simplex virus tissue culture test (human amnion AV3-cells), cytopathogenic effect; assay type: cell-based, Herpes simplex virus type 1 and 2; details: for EC50: Human alphaherpesvirus 1, Table 1, read-out: Herpes Simplex tissue culture OL50 (concentration for 50% survival); for Herpes Simplex tissue culture OL50 (concentration for 50% survival): Table 1
Method: (§1) The virus strains were obtained from the National Bacteriological Laboratory, Stockholm. Herpes simplex type 1 and 2 were passaged intracerebrally in mice. For mouse experiments male mice 2-3 weeks old were used. Intracerebral infection was carried out by introducing the syringe 3 mm above the eye to a depth of approximately 3 mm. 0.03 ml virus suspension was injected above one eye and the substance above the other. Control groups obtained on one hand injection with physiological saline and on the other hand virus suspension.
Tissue culture experiments took place with human amnion AV3-cells. The cells were grown in glass-tubes (12×100 mm) in Eagles medium containing Earles salt solution and 10% of calf-serum. Tubes with a full-grown homogenous layer of cells were infected with virus (0.15 ml) and the virus was allowed to adsorb to cells for 1 hour at 37° C. The tubes were treated with substance dissolved in medium 24 hours and 0 hour before infection. Medium containing test-substance was changed every second day throughout the experiment. In each test a series of concentrations of the test-substance was investigated simultaneously so that about 50% reduction in cytopatogenic effect could be established (ED50).

[2] = Acute toxicity (LD50) in mice; assay type: in vivo; details: for LD50: mouse, in vivo
Method: (§2) Experiments with mice have also been carried out. LD50 intraperitoneally is of the order 1000 mg/kg and about 100 mg/kg intravenously. […] were inocculated with 5 millions mouse ascites tumor cells intraperitoneally. 80 mg/kg of B219 were given daily for ten days. 2 mice died 22 days after treatment, 8 mice survived the whole test period (3 months). All controls were then dead. In two experiments with ascites lymphoma cells in mice a survival time of 50.9 days was obtained in the first experiment and 45.6 days in the second. The survival time for the controls , was 16.2 and 16.1 days respectively.

[3] = test system: herpes simplex virus type 1; experiment: Virus mixed with B196, with or without dialysis, injected intracerebrally into mice (FIG. 4); assay type: in vivo, herpes simplex virus type 1 in mice
Method: as §1
In the experiments shown in FIG. 4 various concentrations of B-196 were mixed with herpes simplex virus type 1 and injected intracerebrally into mice immediately at or after dialysis, at 4° C. over night. No survivors were recorded in control groups.

[4] = test system: Raji cells; experiment: Growth/killing of Burkitt lymphoma Raji-cells; assay type: cell-based; details: FIGS. 1 and 3
Method: (§3) Burkitt lymphoma cells were obtained from professor Georg Klein, Karolinska Institutet. HeHrl-cells contain Epstein-Barr virus antigen on the surface of the cells while Raji cells contain the same antigen in the nucleus. The cells were grown in RPMI 1640 medium in the presence of 15% of fetal calf-serum, 2mM glutamine, 200 mg/1 penicillin and 200 mg/1 of streptomycine. L 1210 cells (mouse leukemia) were obtained from Dr. Miklos Degre, Rikshospitalet, Oslo. These cells were grown in RPMI 1640 medium with 10% horse serum.

[5] = test system: herpes simplex virus type 1; experiment: Virus inactivation after incubation with B196, infectivity by intracerebral injection in mice (FIG. 5); assay type: in vivo, herpes simplex virus type 1 in mice; details: 75 and 150 μg/ml, 4° C.
Method: In the experiments shown in FIG. 5 two concentrations of B-196 (75 and 150 μg/ml) were incubated for different times at 4° C. with herpes simplex virus type 1 and the infectivity of the mixtures were determined by intracerebral injection in mice Control virus was incubated at 4° C. for the same period of time. No survivors were registered in these groups.

[6] = test system: HeHrl-cells; experiment: Growth/killing of Burkitt lymphoma HeHrl-cells (HeHr); assay type: cell-based; details: FIGS. 1 and 2
Method: as §3

[7] = test system: osteogenic sarcoma cells; experiment: Growth inhibition of osteogenic sarcoma cells; assay type: cell-based; details: after 6 days test with 1 mg/1
Method: (§4) Also osteogenic sarcoma cells and giant tumor cells (strain T4) were inhibited to 90% in their growth after 6 days test with 1 mg/1.

[8] = test system: giant tumor cells (strain T4); experiment: Growth inhibition of giant tumor cells (strain T4); assay type: cell-based; details: after 6 days test with 1 mg/1
Method: as §4

[9] = test system: ascites lymphoma cells; experiment: Ascites lymphoma survival experiments in mice; assay type: in vivo
Method: as §2

[10] = test system: mouse ascites tumor cells; experiment: Mouse ascites tumor survival experiment; assay type: in vivo; details: 80 mg/kg daily for ten days
Method: as §2

[11] = test system: herpes virus; details: literature; cited from earlier work

Cc1ccc2c(c1)c1nc3ccccc3nc1n2CCN(C)C [Example 4, 9-methyl-6-(N,N-dimethylaminoethyl)-6H-indolo(2,3-b)quinoxaline]
EC50 [1]: 1 µg/mL (≈ 3.29 µM) | LD50 ([2]; Table 1): > 200 mg/kg

CN(C)CCn1c2ccc(Cl)cc2c2nc3ccccc3nc21.Cl [Example 5, 9-chloro-6-(N,N-dimethylaminoethyl)-6H-indolo(2,3-b)-quinoxaline-HCl]
EC50 [1]: 1 µg/mL | LD50 mouse ([2]; Table 1, listed as 9): > 250 mg/kg | LD50 ([2]; Table 1): 180 mg/kg

Cc1cc2nc3c4cc(Br)ccc4n(CCN(C)C)c3nc2cc1C [Example 6, 2,3-dimethyl-9-bromo-6-(N,N-dimethylaminoethyl)-6H-indolo-(2,3-b)quinoxalin]
EC50 [1]: < 0.5 µg/mL | LD50 ([2]; Table 1): > 250 mg/kg

Cc1ccc2c(c1)c1nc3ccccc3nc1n2CCN(C)C [Example 8]
Herpes Simplex tissue culture OL50 (concentration for 50% survival) [1]: 1 µg/mL | LD50 mouse ([2]; Table 1): > 200 mg/kg

Cc1ccc2c(c1)c1nc3ccccc3nc1n2CCN(C)C [Example 10, 9-methyl-6-(N,N-dimethylaminoethyl)-6H-indolo(2,3-b)-quinoxaline-ICl]
Herpes Simplex tissue culture OL50 (concentration for 50% survival) [1]: 0.5 µg/mL | LD50 mouse ([2]; Table 1): 220 mg/kg

CN(C)CCn1c2ccc(Br)cc2c2nc3ccccc3nc21 [Example B196, 9-bromo-6(N,N-dimethylaminoethyl)-6H-indolo(2,3-b)-quinoxaline . HCl]
survival rate ([3]; virus mixed with B196 before injection, increases from 0): 100% | effect on survival rate after dialysis ([3]; virus-substance mixture subjected to dialysis before injection): almost equally pronounced | sensitivity / killing of Raji-cells [4]: rapidly killed | inactivation of HSV1-virus vs. time [5]: virus slowly is inactivated | sensitivity / killing of HeHrl-cells [6]: rapidly killed | inhibition of growth, osteogenic sarcoma cells [7]: 90% | inhibition of growth, giant tumor cells (strain T4) [8]: 90%

Cc1cc2nc3c4cc(Br)ccc4n(CCN(C)C)c3nc2cc1C [Example B219]
survival time, first experiment ([9]; first experiment, controls 16.2 days): 50.9 days | survival time, second experiment ([9]; second experiment, controls 16.1 days): 45.6 days | mice died 22 days after treatment ([10]; 5 millions ascites tumor cells intraperitoneally): 2 mice | mice survived the whole test period ([10]; 3 months, all controls dead): 8 mice

O=C(O)CP(=O)(O)O [phosphonoacetic acid]
activity against herpes virus [11]: active against herpes virus

O=C(O)P(=O)(O)O [phosphonoformic acid]
activity against herpes virus [11]: active against herpes virus
